Experimental data as given in BindingDB's records for doi:10.1016/j.bmcl.2004.12.045 (Nimbus Therapeutics, 2022).

Legend:
[1] = biological target: Potassium voltage-gated channel subfamily H member 2 (Homo sapiens, UniProt Q12809); experiment: Inhibition of hERG measured by patchclamp assay
Cytochrome P450 3A4 = Cytochrome P450 3A4 (Homo sapiens, UniProt P08684); experiment: Inhibition of CYP3A4 (unknown origin)
Cytochrome P450 2D6 = Cytochrome P450 2D6 (Homo sapiens, UniProt P10635); experiment: Inhibition of CYP2D6 (unknown origin)
Cytochrome P450 2C9 = Cytochrome P450 2C9 (Homo sapiens, UniProt P11712); experiment: Inhibition of CYP2C9 (unknown origin)
Cytochrome P450 2C8 = biological target: T1, Cytochrome P450 2C8 (Homo sapiens, UniProt P10632); experiment: Inhibition of CYP2C8 (unknown origin)
T1 sequence (P10632 whole entry): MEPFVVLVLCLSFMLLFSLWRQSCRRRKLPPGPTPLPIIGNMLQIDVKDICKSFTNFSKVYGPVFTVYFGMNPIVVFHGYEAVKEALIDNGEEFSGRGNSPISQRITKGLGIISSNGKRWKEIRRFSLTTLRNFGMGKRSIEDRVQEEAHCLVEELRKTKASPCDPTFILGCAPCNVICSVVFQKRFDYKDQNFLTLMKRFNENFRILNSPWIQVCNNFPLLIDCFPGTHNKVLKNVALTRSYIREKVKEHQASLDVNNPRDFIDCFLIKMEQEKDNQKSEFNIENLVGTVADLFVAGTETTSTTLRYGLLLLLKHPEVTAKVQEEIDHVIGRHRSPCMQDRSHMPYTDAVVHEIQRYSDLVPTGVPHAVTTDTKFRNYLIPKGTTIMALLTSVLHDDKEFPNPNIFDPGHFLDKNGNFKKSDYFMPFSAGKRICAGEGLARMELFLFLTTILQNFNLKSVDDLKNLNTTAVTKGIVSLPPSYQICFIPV

Cytochrome P450 1A2 = biological target: T2, Cytochrome P450 1A2 (Homo sapiens, UniProt P05177); experiment: Inhibition of CYP1A2 (unknown origin)
T2 sequence (P05177 whole entry): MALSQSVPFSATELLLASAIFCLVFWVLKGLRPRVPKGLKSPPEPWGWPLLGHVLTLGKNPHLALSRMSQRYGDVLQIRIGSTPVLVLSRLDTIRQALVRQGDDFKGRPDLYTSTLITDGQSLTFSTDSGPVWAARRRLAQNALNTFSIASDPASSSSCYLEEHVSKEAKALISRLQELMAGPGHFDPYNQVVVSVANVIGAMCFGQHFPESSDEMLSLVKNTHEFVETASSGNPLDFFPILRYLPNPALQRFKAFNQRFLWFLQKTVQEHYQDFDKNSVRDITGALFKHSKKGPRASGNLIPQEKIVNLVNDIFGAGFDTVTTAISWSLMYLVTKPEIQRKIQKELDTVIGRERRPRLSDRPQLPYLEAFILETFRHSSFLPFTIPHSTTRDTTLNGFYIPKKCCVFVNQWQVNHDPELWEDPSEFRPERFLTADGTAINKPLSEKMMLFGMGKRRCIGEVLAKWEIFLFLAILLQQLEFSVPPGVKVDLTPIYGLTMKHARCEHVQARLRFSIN

Cytochrome P450 2A6 = biological target: T3, Cytochrome P450 2A6 (Homo sapiens, UniProt P11509); experiment: Inhibition of CYP2A6 (unknown origin)
T3 sequence (P11509 whole entry): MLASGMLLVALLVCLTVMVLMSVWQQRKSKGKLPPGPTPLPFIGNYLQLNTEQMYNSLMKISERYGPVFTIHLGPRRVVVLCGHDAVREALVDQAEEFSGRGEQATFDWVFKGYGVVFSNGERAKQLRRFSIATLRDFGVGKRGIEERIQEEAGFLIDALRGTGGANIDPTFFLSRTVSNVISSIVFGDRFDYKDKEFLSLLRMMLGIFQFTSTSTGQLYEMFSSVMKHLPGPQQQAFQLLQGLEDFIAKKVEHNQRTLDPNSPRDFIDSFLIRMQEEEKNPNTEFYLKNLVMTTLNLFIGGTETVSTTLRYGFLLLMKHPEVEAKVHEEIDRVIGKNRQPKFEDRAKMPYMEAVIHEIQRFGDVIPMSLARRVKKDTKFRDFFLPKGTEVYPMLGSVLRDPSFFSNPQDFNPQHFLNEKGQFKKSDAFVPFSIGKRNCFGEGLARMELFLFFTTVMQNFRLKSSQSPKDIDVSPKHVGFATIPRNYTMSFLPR

Cytochrome P450 2B6 = biological target: T4, Cytochrome P450 2B6 (Homo sapiens, UniProt P20813); experiment: Inhibition of CYP2B6 (unknown origin)
T4 sequence (P20813 whole entry): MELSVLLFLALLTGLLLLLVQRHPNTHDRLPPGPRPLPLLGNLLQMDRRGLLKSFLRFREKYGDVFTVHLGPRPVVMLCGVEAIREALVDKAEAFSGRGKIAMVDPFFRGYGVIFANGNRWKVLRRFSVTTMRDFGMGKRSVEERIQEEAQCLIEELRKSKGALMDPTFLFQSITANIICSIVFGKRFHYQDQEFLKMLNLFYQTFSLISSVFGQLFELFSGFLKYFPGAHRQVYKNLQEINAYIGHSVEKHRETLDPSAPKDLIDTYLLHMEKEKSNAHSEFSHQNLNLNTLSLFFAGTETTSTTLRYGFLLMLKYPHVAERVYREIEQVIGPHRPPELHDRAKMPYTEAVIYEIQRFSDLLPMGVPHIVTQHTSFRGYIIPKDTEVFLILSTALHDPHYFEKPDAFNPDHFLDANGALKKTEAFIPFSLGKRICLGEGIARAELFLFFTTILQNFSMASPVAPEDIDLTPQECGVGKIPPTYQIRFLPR

Cytochrome P450 2C19 = Cytochrome P450 2C19 (Homo sapiens, UniProt P33261); experiment: Inhibition of CYP2C19 (unknown origin)
Cytochrome P450 2E1 = Cytochrome P450 2E1 (Homo sapiens, UniProt P05181); experiment: Inhibition of CYP2E1 (unknown origin)
Cytochrome P450 3A5 = Cytochrome P450 3A5 (Homo sapiens, UniProt P20815); experiment: Inhibition of CYP3A5 (unknown origin)
Sequence of Cytochrome P450 3A5 (P20815 whole entry): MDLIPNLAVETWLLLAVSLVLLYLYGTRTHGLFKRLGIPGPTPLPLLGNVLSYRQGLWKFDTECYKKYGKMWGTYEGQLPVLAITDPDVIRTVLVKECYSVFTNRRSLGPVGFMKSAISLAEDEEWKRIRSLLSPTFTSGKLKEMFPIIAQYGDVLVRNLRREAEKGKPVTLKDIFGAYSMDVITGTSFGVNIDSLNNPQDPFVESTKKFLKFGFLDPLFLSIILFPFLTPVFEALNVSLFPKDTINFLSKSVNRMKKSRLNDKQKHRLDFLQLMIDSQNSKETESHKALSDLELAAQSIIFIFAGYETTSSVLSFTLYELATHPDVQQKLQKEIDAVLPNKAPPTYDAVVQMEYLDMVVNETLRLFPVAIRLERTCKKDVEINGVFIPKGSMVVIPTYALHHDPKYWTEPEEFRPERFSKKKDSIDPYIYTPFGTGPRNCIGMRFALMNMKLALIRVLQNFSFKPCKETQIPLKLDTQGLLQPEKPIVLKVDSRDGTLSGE

Sequence of Cytochrome P450 2C9 (P11712 whole entry): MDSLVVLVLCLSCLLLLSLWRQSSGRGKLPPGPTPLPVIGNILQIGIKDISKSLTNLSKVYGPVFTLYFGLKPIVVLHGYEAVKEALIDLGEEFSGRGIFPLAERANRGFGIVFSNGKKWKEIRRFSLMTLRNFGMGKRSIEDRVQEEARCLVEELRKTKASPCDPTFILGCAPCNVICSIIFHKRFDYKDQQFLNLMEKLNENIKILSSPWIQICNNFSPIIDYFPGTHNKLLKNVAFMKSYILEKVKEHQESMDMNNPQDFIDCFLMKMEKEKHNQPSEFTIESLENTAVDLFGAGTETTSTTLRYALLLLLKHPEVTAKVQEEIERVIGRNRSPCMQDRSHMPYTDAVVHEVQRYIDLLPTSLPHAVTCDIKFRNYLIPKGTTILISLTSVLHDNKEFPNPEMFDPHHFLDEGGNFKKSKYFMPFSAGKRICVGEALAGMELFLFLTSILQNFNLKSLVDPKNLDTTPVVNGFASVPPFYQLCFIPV
Sequence of Cytochrome P450 2E1 (P05181 whole entry): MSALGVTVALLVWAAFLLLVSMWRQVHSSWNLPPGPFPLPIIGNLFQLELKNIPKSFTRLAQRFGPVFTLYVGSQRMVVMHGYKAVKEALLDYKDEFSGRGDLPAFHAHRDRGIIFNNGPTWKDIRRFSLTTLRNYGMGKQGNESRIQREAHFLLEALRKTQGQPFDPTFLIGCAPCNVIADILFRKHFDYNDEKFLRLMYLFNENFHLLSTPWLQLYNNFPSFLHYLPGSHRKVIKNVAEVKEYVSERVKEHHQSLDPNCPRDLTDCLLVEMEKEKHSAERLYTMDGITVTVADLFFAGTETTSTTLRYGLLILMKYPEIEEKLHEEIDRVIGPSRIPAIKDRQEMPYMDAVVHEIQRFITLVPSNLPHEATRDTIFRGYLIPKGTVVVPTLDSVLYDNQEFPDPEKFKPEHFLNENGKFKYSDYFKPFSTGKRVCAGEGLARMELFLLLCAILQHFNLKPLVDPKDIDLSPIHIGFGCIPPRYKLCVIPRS
Sequence of Potassium voltage-gated channel subfamily H member 2 (Q12809 whole entry): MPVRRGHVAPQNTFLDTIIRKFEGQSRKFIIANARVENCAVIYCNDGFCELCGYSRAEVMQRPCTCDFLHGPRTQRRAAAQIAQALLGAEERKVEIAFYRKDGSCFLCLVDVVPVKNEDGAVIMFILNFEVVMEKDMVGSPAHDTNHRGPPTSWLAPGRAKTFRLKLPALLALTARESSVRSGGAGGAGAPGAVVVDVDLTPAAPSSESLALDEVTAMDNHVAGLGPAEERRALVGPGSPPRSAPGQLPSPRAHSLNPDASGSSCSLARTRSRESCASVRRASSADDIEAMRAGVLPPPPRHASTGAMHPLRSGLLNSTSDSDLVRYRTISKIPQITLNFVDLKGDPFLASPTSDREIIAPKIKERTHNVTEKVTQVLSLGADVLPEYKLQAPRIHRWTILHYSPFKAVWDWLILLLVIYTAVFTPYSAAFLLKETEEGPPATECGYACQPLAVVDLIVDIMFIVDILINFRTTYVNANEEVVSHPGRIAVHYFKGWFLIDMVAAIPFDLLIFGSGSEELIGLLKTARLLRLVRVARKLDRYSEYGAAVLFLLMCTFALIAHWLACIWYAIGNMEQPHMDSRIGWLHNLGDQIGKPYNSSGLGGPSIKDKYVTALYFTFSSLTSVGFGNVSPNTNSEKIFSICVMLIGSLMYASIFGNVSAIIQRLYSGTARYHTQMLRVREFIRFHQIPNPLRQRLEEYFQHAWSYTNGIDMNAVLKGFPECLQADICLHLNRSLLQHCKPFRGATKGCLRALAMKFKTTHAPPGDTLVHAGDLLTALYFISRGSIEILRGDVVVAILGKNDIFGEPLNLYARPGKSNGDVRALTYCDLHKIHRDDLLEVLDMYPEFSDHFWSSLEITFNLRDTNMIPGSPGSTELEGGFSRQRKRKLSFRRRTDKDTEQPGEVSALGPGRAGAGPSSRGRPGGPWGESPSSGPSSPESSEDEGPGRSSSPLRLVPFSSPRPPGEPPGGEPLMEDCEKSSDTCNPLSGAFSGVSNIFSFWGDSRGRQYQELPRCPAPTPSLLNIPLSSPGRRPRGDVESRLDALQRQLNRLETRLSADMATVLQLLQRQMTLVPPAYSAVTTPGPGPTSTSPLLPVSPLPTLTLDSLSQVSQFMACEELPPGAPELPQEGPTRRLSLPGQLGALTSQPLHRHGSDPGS
Sequence of Cytochrome P450 2D6 (P10635 whole entry): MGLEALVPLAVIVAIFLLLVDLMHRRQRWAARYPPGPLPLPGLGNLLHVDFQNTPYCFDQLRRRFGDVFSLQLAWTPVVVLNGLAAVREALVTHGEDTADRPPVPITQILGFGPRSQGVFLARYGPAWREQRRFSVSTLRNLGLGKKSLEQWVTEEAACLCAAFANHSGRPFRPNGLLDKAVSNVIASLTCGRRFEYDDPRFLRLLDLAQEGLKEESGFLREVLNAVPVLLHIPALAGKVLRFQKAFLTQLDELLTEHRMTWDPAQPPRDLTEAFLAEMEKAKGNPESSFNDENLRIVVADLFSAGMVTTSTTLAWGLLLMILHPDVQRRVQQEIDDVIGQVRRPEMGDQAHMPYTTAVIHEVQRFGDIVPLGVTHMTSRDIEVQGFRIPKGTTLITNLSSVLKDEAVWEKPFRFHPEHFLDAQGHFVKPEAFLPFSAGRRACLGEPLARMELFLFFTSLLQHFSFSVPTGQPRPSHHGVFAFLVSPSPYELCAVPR
Sequence of Cytochrome P450 2C19 (P33261 whole entry): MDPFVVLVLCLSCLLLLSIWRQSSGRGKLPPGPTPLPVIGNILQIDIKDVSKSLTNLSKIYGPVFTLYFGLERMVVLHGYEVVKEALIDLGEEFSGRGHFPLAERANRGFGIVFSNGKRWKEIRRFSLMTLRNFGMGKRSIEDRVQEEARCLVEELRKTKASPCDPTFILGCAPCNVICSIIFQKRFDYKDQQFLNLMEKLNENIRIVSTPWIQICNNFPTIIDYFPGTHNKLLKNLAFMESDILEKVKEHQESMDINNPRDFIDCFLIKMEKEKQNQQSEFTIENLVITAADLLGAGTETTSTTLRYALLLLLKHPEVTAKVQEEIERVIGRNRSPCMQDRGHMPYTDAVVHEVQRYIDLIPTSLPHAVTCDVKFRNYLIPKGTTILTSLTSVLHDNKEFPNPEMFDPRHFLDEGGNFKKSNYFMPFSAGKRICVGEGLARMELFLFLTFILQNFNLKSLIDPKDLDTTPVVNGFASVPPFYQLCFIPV
Sequence of Cytochrome P450 3A4 (P08684 whole entry): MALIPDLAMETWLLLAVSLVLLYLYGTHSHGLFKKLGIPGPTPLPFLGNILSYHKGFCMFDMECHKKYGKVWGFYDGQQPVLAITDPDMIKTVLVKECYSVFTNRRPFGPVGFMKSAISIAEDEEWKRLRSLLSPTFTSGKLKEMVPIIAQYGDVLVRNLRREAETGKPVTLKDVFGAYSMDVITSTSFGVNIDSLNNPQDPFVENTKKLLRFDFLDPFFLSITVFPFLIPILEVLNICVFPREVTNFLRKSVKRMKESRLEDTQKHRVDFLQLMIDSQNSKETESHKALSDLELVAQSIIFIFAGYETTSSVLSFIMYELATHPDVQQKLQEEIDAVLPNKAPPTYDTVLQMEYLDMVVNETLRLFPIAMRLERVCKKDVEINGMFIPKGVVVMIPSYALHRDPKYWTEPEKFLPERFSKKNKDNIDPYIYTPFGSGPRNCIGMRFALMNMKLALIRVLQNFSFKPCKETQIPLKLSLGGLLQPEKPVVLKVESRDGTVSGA

IC50 (Cytochrome P450 3A4): > 30 µM
IC50 (Cytochrome P450 2D6): > 30 µM
IC50 (Cytochrome P450 2C9): > 30 µM
IC50 (Cytochrome P450 2C8): > 30 µM
IC50 (Cytochrome P450 1A2): > 30 µM
IC50 (Cytochrome P450 2A6): > 30 µM
IC50 (Cytochrome P450 2B6): > 30 µM
IC50 (Cytochrome P450 2C19): > 30 µM
IC50 (Cytochrome P450 2E1): > 30 µM
IC50 (Cytochrome P450 3A5): > 30 µM
SMILES: O=C1NCc2nc(-c3c(F)cccc3F)cc(Nc3ccc(C(=O)N4CCCC4)cc3)c21 [US10336752, Compound 2]
IC50 [1]: > 30 µM
